# Counter-ions that a name gives are not always drawn. Marks after values point to notes of the source that are not given here.
# Tests used:
# Assay type in all cases: physicochemical
# [1] = Thermostability under stress conditions (storage at 100 °C for one month), HPLC
# Description: Sample S was prepared according to the present invention, as described in Example 3 above. Sample M1 was prepared according to Example 1 of WO 2012/163508 A1, as described in Example 7 above. Finally, Sample M2 was prepared according to Example 2 of WO 2012/163508 A1, as described in Example 7 above.
# The samples were exposed to a temperature of 100° C. for the time period (in weeks) indicated. The testing was performed as described in the ICH Guideline Q1A (R2) (cf. above). The amount of the degradation product (i.e. doxorubicinone) produced as well as those of various impurities (i.e., doxorubicin and four different impurities of yet unknown identity; all given in % (w/w); “n.d.”=not determined) was determined by HPCL analysis (“LT”=less than).
# [2] = Particle size distribution by laser diffraction analysis (Mastersizer 2000); details: wet laser diffraction in acetone
# Description: Laser diffraction analysis was performed in form of wet laser diffraction in acetone: 1750 rpm, 3×20 s cycle time, 60 s background time, without sonication, and 5 min stirring time using a Mastersizer 2000 Particle Size Analyzer (Malvern Instruments Ltd., Malvern, UK) according to the manufacturer's instructions.
# [3] = Thermostability on storage at 25, 40 and 100 °C per ICH Q1A (R2), HPLC; details: 25, 40, 100 °C; data not shown
# Description: HPLC and GC analyses were performed according to standard protocols.
# The testing was performed as described in the ICH guidelines (cf. inter alia ICH Guideline Q1A (R2)).
# [4] = Hygroscopic capacity: water content by Karl-Fischer titration after exposure to temperature and relative humidity; details: 25 or 40 °C, 40-90% rh; data not shown
# Description: Coulometric Karl-Fischer titration (KFT; for determining the water content) was performed with an external drying oven (Metrohm 707 KF; operated at 140° C. with N2 purge). The samples were precisely weighed on an analytical balance (10^−5 g).
# The testing was performed as described in the ICH guidelines.
SMILES,Doxorubicin (NMT 1%) ([1]; 0 weeks),Doxorubicinone (Aglycone) (NMT 1%) ([1]; 0 weeks),Total Impurities (NMT 2%) ([1]; 0 weeks),"Doxorubicin (NMT 1%) ([1]; 1 week, hydrochloride)","Doxorubicinone (Aglycone) (NMT 1%) ([1]; 1 week, hydrochloride)","Total Impurities (NMT 2%) ([1]; 1 week, hydrochloride)","Unknown impurity RRT 1.7 (NMT 0.15%) ([1]; 1 week, hydrochloride)",Doxorubicin (NMT 1%) ([1]; 2 weeks),"Doxorubicinone (Aglycone) (NMT 1%) ([1]; 2 weeks, hydrochloride)","Total Impurities (NMT 2%) ([1]; 2 weeks, hydrochloride)","Unknown impurity RRT 1.2 (NMT 0.15%) ([1]; 2 weeks, hydrochloride)","Unknown impurity RRT 1.6 (NMT 0.15%) ([1]; 2 weeks, hydrochloride)","Unknown impurity RRT 1.7 (NMT 0.15%) ([1]; 2 weeks, hydrochloride)","Doxorubicin (NMT 1%) ([1]; 3 weeks, hydrochloride)","Doxorubicinone (Aglycone) (NMT 1%) ([1]; 3 weeks, hydrochloride)","Total Impurities (NMT 2%) ([1]; 3 weeks, hydrochloride)","Unknown impurity RRT 1.2 (NMT 0.15%) ([1]; 3 weeks, hydrochloride)","Unknown impurity RRT 1.6 (NMT 0.15%) ([1]; 3 weeks, hydrochloride)","Unknown impurity RRT 1.7 (NMT 0.15%) ([1]; 3 weeks, hydrochloride)",Doxorubicin (NMT 1%) ([1]; 4 weeks),further results
"COc1cccc2c1C(=O)c1c(O)c3c(c(O)c1C2=O)C[C@@](O)(C(=O)CO)C[C@@H]3O[C@H]1C[C@H](N)[C@H](O)[C@H](C)O1 [Example M2, epirubicin hydrochloride]",0.29 % (w/w),< 0.05 % (w/w),0.30 % (w/w),0.27 % (w/w),0.54 % (w/w),1.30 % (w/w),0.14 % (w/w),0.32 % (w/w),0.59 % (w/w),1.70 % (w/w),0.12 % (w/w),0.21 % (w/w),0.18 % (w/w),0.32 % (w/w),0.61 % (w/w),1.80 % (w/w),0.13 % (w/w),0.27 % (w/w),0.22 % (w/w),0.33 % (w/w),"Unknown impurity RRT 1.2 (NMT 0.15%) ([1]; 1 week, hydrochloride): 0.12 % (w/w); Unknown impurity RRT 1.6 (NMT 0.15%) ([1]; 1 week, hydrochloride): 0.12 % (w/w); Unknown impurity RRT 1.1 (NMT 0.15%) ([1]; 2 weeks, hydrochloride): 0.14 % (w/w); Unknown impurity RRT 1.1 (NMT 0.15%) ([1]; 3 weeks, hydrochloride): 0.13 % (w/w); Doxorubicinone (Aglycone) (NMT 1%) ([1]; 4 weeks, hydrochloride): 0.60 % (w/w); Total Impurities (NMT 2%) ([1]; 4 weeks, hydrochloride): 2.1* % (w/w); Total amount of unknown impurities ([1]; 4 weeks, hydrochloride): 1.1 % (w/w); Unknown impurity RRT 1.1 (NMT 0.15%) ([1]; 4 weeks, hydrochloride): 0.21 % (w/w); Unknown impurity RRT 1.2 (NMT 0.15%) ([1]; 4 weeks, hydrochloride): 0.16 % (w/w); Unknown impurity RRT 1.6 (NMT 0.15%) ([1]; 4 weeks, hydrochloride): 0.39 % (w/w); Unknown impurity RRT 1.7 (NMT 0.15%) ([1]; 4 weeks, hydrochloride): 0.26 % (w/w); D(v/0.5), mean diameter based on the volume of the particles ([2]; listed as Sample 2, hydrochloride): 9.04 μm"
"COc1cccc2c1C(=O)c1c(O)c3c(c(O)c1C2=O)C[C@@](O)(C(=O)CO)C[C@@H]3O[C@H]1C[C@H](N)[C@H](O)[C@H](C)O1 [S, epirubicin hydrochloride]",0.29 % (w/w),< 0.05 % (w/w),0.30 % (w/w),0.28 % (w/w),0.39 % (w/w),0.80 % (w/w),0.08 % (w/w),0.32 % (w/w),0.40 % (w/w),0.90 % (w/w),0.07 % (w/w),0.05 % (w/w),0.09 % (w/w),0.32 % (w/w),0.46 % (w/w),1.10 % (w/w),0.08 % (w/w),0.12 % (w/w),0.13 % (w/w),0.33 % (w/w),"Doxorubicinone (Aglycone) (NMT 1%) ([1]; 4 weeks, hydrochloride): 0.49 % (w/w); Total Impurities (NMT 2%) ([1]; 4 weeks, hydrochloride): 1.3* % (w/w); Total amount of unknown impurities ([1]; 4 weeks, hydrochloride): 0.48 % (w/w); Unknown impurity RRT 1.1 (NMT 0.15%) ([1]; 4 weeks, hydrochloride): 0.06 % (w/w); Unknown impurity RRT 1.2 (NMT 0.15%) ([1]; 4 weeks, hydrochloride): 0.11 % (w/w); Unknown impurity RRT 1.6 (NMT 0.15%) ([1]; 4 weeks, hydrochloride): 0.15 % (w/w); Unknown impurity RRT 1.7 (NMT 0.15%) ([1]; 4 weeks, hydrochloride): 0.15 % (w/w); Degradation under stress conditions compared with M1 and M2, in words ([1]; one month): less pronounced degradation; Thermostability compared with the Example 1 monohydrate (TABLE 5-1), in words [3]: almost identical results; D(v/0.5), mean diameter based on the volume of the particles ([2]; listed as Sample 3, hydrochloride): 25.25 μm; Hygroscopic capacity compared with the Example 1 monohydrate (TABLE 6-1), in words [4]: almost identical results"

# Source: patent US20190382432A1 (Synbias Pharma AG, priority 2013, published 2019)
